Reference: patent US11549147B2, “Treatment of atopic dermatitis with tradipitant” (VANDA PHARMACEUTICALS INC., priority 2017, dated 2023)

Test system: chronic pruritus in patients with atopic dermatitis
Assay: Phase II proof of concept study VP-VLY-686-2101: tradipitant monotherapy vs placebo (Example 1)
Format: in vivo, human
Design: key to VAS Worst change / VAS Worst change, Diff / VAS Average change / VAS Average change, Diff: VAS points in mm; VRS change / VRS change, Diff / FBI / FBI, Diff / CGIC / CGIC, Diff: scale not given here
Conditions: for CGIC / DLQI change / FBI / SCORAD change / VAS Average change / VAS Worst change / VRS change: 100 mg qd evening; for CGIC, Diff / DLQI change, Diff / FBI, Diff / SCORAD change, Diff / VAS Average change, Diff / VAS Worst change, Diff / VRS change, Diff: Diff tradipitant vs placebo
Protocol: A phase II proof of concept clinical study (Study ID VP-VLY-686-2101, “Proof of Concept of VLY-686 in Subjects With Treatment-Resistant Pruritus Associated With Atopic Dermatitis”) is conducted, investigating the safety and efficacy of tradipitant as a monotherapy in the treatment of chronic pruritus in patients with atopic dermatitis.
In the study, patients with a Visual Analog Scale (VAS) score of greater than 70 mm during one of the two days preceding inclusion into the study are randomized to receive orally either 100 mg of tradipitant (n=34) or placebo (n=35) once a day in the evening. In the tradipitant arm of the study, tradipitant is orally administered to patients in capsules with standard excipients in an amount of 100 mg in the evening. Clinical assessments are made after 3 or 4 weeks of daily treatment, or at both 3 weeks and 4 weeks, each assessment being done in the morning of the day after last treatment or in the afternoon of the day after last treatment. The tradipitant is administered in an immediate release form comprising tradipitant and pharmaceutically acceptable excipients in a capsule. The tradipitant particle size is approximately: D10: <5 um, D50: <10 um, and D90: <25 um, wherein Dio means that 10% of the particles are of the indicated mean particle size, D50 means that 50% of the particles are of the indicated mean particle size, and D90 means that 90% of the particles are of the indicated mean particle size.
Baseline VAS scores are 76.1 and 77.2 for the tradipitant and placebo arms respectively. Efficacy is evaluated through a number of clinical research instruments. In addition, at the time of efficacy evaluation blood samples are collected for PK analysis in order to determine the plasma levels of tradipitant.

O=C(c1ccccc1Cl)c1cccnc1-c1nnn(Cc2cc(C(F)(F)F)cc(C(F)(F)F)c2)c1-c1ccncc1 [Tradipitant]
adverse event profile (100 mg qd): mild and similar to placebo | tolerability (100 mg qd): well-tolerated | endpoints corresponding to the underlying disease (SKINDEX, SCORAD objective, EASI and DLQI) vs placebo (100 mg qd, 4-week study): do not show any significant difference from placebo | CGIC (AM group, 3-4 weeks): 2.46 | DLQI change (AM group, 3-4 weeks): −2.52 | FBI (AM group, 3-4 weeks): 1.47 | SCORAD change (AM group, 3-4 weeks): −9.58 | VAS Average change (AM group, 3-4 weeks): −54 | VAS Worst change (AM group, 3-4 weeks): −47.9 | VRS change (AM group, 3-4 weeks): −1.46 | CGIC, Diff (AM group): −1.15 | DLQI change, Diff (AM group): 0.35 | FBI, Diff (AM group): 0.74 | SCORAD change, Diff (AM group): −5.23 | VAS Average change, Diff (AM group): −23.7 | VAS Worst change, Diff (AM group): −21.9 | VRS change, Diff (AM group): −0.79 | CGIC, Diff (PM group): 0.19 | DLQI change, Diff (PM group): −1.89 | FBI, Diff (PM group): −0.39 | SCORAD change, Diff (PM group): 0.88 | VAS Average change, Diff (PM group): 5.82 | VAS Worst change, Diff (PM group): 8.99 | VRS change, Diff (PM group): −0.13 | CGIC (PM group, 3-4 weeks): 2.47 | DLQI change (PM group, 3-4 weeks): −5.45 | FBI (PM group, 3-4 weeks): 1.01 | SCORAD change (PM group, 3-4 weeks): −6.29 | VAS Average change (PM group, 3-4 weeks): −28.8 | VAS Worst change (PM group, 3-4 weeks): −32.3 | VRS change (PM group, 3-4 weeks): −1.29 | improvement from baseline on 100 mm unit Visual Analog Scale (VAS) for itch (all patients, 100 mg once a day in the evening, 3-4 weeks): 40.5 mm
